Data set [1] is described as follows: in vitro. To be noted: rat liver microsomes 0.5 mg/mL, 1 mM NADPH, test compound 1 μM, pH 7.4, 37° C.; read-out: RLM, t1/2. The class given is in vitro ADME, Male Sprague-Dawley rat. The procedure:
Male Sprague-Dawley rat liver microsomes were purchased from XenoTech. The reaction mixture, minus NADPH, was prepared as described below. The test compound was added into the reaction mixture at a final concentration of 1 μM. The control compound, testosterone, was run simultaneously with the test compound in a separate reaction. The reaction mixture (without cofactor) was equilibrated in a shaking water bath at 37° C. for 5 minutes. The reaction was initiated by the addition of the cofactor, and the mixture was incubated in a shaking water bath at 37° C. Aliquots (150 μL) were withdrawn at 0, 5, 10, 20, 30, 60, and 120 minutes. Test compound and testosterone samples were immediately combined with 150 μL of ice-cold acetonitrile (ACN) containing 0.1% formic acid and internal standard to terminate the reaction. The samples were then mixed and centrifuged to precipitate proteins. All samples were assayed by LC-MS/MS using electrospray ionization. The peak area response ratio (PARR) of analyte to internal standard at each time point was compared to the PARR at time 0 to determine the percent remaining at each time point. Half-lives were calculated using GraphPad software, fitting to a single-phase exponential decay equation.
On the technique in general: Microsomes from liver hold many membrane-bound enzymes, among them those of drug oxidation.

The conditions of data set [2]: in vivo, cited from earlier work.
Data set [3] addresses T1, 5-HT2A receptor (Homo sapiens, UniProt P28223).
T1 construct: expressed in transfected cells
Description: 5-HT2A receptor functional screening assay (efficacy relative to maximal 5-HT response). Format: cell-based. To be noted: for activation at 0.5 µM: 500 nM. The procedure:
(§1) 5-HT2 receptor-mediated Gq stimulation [phosphoinositide hydrolysis leading to the production of inositol phosphate 1 (IP1)]-canonical signaling pathways-were measured as previously described (Canal, C. E., Cordova-Sintjago, T., Liu, Y., Kim, M. S., Morgan, D., and Booth, R. G., 2013, Molecular pharmacology and ligand docking studies reveal a single amino acid difference between mouse and human serotonin 5-HT2A receptors that impacts behavioral translation of novel 4-phenyl-2-dimethylaminotetralin ligands, J Pharmacol Exp Ther 347, 705-716; Canal, C. E., Morgan, D., Felsing, D., Kondabolu, K., Rowland, N. E., Robertson, K. L., Sakhuja, R., and Booth, R. G., 2014, A Novel Aminotetralin-Type Serotonin (5-HT)(2C) Receptor —Specific Agonist and 5-HT2A Competitive Antagonist/5-HT2B Inverse Agonist with Preclinical Efficacy for Psychoses, J Pharm Exp Ther 349, 533), for example, with a homogeneous time-resolved fluorescence (HTRF) capable microplate reader (e.g., Mithras LB 940, Berthold) using commercially-available kits employing Fluorescence Resonance Energy Transfer (FRET) technology (e.g., IP-One HTRF (Cisbio) kits). Briefly, CHO-K1 or HEK293 cells expressing a single serotonergic 5-HT2 receptor subtype were incubated with test compounds and 5-HT or DOI (positive control) in stimulation buffer containing LiCl. After equilibration, the reaction was terminated with the donor and acceptor fluorescent conjugates in lysis buffer, and FRET was measured with a microplate reader (Berthold Mithras). Data were fit to non-linear curves to calculate potencies (e.g., EC50) and efficacies (e.g., EMAX), relative to positive controls (e.g., serotonin).

In data set [4] the target is T1, 5-HT2A receptor. Description: Competition binding assay with [125I]DOI, 5-HT2A receptor. Conditions: [125I]DOI radioligand; read-out: 5-HT2A affinity. Here is the method: (§2) Binding affinity (Ki) and functional potency and efficacy (EC50 and EMAX) values of the compounds were measured.
The target of data set [5] is 5-HT2B receptor (Homo sapiens, UniProt P41595). Description: Dose-response 5-HT2B functional assay (IP1 formation). The class given is cell-based. To be noted: for EC50 / 5-HT2B functional activity (in words): IP1 formation; for 5-HT2B functional activity (in words): dose-response; for Emax: percent of control agonist response. Here is the method:
FIG. 29 is a graph showing the dose-response 5-HT2B functional assay results as a percent of control agonist response for compounds III-2 and IV-21; tested in duplicate at the indicated concentrations and the EC50 values were determined by non-linear regression analysis of the concentration-response curves generated with mean replicate values using Hill equation curve fitting.
as §1
(§3) The results from tests of 5-HT2A functional activities of this series of compounds were also unexpected in the context of the unusual results observed from competition binding assays. […] Complete dose-response 5-HT2A and 5HT2B functional assays (measuring IP1 formation) were conducted for III-2 and IV-21 by a second, independent laboratory.

Data set [6] deals with T1, 5-HT2A receptor. Description: Dose-response 5-HT2A functional assay (IP1 formation). Format: cell-based. To be noted: for 5-HT2A functional activity (in words): dose-response. The procedure:
FIG. 27 is a graph showing the dose-response 5-HT2A functional assay results as a percent of control agonist response for compound II-2; tested in duplicate at the indicated concentrations and the EC50 values were determined by non-linear regression analysis of the concentration-response curves generated with mean replicate values using Hill equation curve fitting;
FIG. 28 is a graph showing the dose-response 5-HT2A functional assay results as a percent of control agonist response for compounds III-2 and IV-21; tested in duplicate at the indicated concentrations and the EC50 values were determined by non-linear regression analysis of the concentration-response curves generated with mean replicate values using Hill equation curve fitting; and
as §1, §3

Data set [7] deals with 5-HT2A receptor. As to the kind of experiment: Head-twitch response (HTR) and behavioral observation in mice. Format: in vivo, adult, male C57BL/6J mice. To be noted: 10 mg/kg PO, mice. Here is the method:
The HTR assay was performed in adult, male C57BL/6J mice, procured from the Jackson Laboratory (Bar Harbor, Maine), as previously described (Canal, C. E., and Morgan, D., 2012, Head-twitch response in rodents induced by the hallucinogen 2,5-dimethoxy-4-iodoamphetamine: a comprehensive history, a re-evaluation of mechanisms, and its utility as a model, Drug Test Anal 4, 556-576; Saraf, T. S., Felsing, D. E., Armstrong, J. L., Booth, R. G., and Canal, C. E., 2021, Evaluation of lorcaserin as an anticonvulsant in juvenile Fmr1 knockout mice, Epilepsy Res 175, 106677). Mice were housed in standard laboratory cages with ad libitum access to food and water, and were acclimated to the vivarium for at least one week prior to testing in a procedure room. On the day of testing, mice were acclimated to the procedure room in their home cages for ≥60 min before administration of test compounds. Test articles were administered at 10 mg/kg by oral gavage and mice were placed immediately thereafter in a clear, polycarbonate box (46×20×20 cm), and HTRs were counted for 30 consecutive minutes, using hand-held tally counters, by two trained observers who were blind to treatment.

The conditions of data set [8]: humans (TIHKAL; Erowid); cited from earlier work.
Data set [9] deals with T2, human serotonin 5-HT2A receptor (Homo sapiens, UniProt P28223).
T2 construct: host or cells: HEK293 (ATCC CRL-1573)
Description: Radioligand ([3H]LSD) competition binding, 5-HT2A receptor. Conditions: in words; up to 10 μM for partial competition. The procedure:
as §2
Radioligand competition binding was performed as previously described (Saraf, T. S., Felsing, D. E., Armstrong, J. L., Booth, R. G., and Canal, C. E., 2021, Evaluation of lorcaserin as an anticonvulsant in juvenile Fmr1 knockout mice, Epilepsy Res 175, 106677), with minor modifications, using human cloned 5-HT2A receptors. Plasmids encoding human serotonin 5-HT2A receptor cDNA were procured from the cDNA Resource Center. Human embryonic kidney cells (HEK293, ATCC CRL-1573) were grown in a cell incubator in 100 mm dishes with antibiotic-free Dulbecco's modified Eagle's medium containing 10% fetal bovine serum. Cells were transfected at ~85% confluency with 5-15 μg cDNA using TransIT-2020 reagent (Mirus Bio, Madison, Wisconsin). After approximately 48 hours, cell membrane was collected via centrifugation. For all experiments, serotonin (5-HT) hydrochloride was used as a positive control, and mianserin hydrochloride (10 μM) was used to define non-specific binding. Each cell membrane homogenate expressing 5-HT2A receptors was incubated at room temperature in 96-well plates with [^3H] […] Following equilibration, each sample was filtered rapidly under vacuum through fiberglass filters presoaked in a buffer and washed by vacuum several times with an ice-cold buffer. Filters were soaked with scintillation fluid and counts per minute were detected using photodetectors (Microbeta Scintillation Counter). […] Data shown are the results from all experiments combined. As is known, G protein-coupled receptors, including the 5-HT2A receptor, can exist in multiple conformations, and ligands, typically agonist ligands, have unique affinities for these conformations of the receptor (Kenakin, T. Theoretical Aspects of GPCR-Ligand Complex Pharmacology, Chem. Rev. 2017, 117, 1, 4-20). […] However, for simplicity reasons, affinity of these compounds are reported herein as fitted to the single-site model. The data point for −10 samples is total specific binding (no compound present), and −4 was interpolated to complete the binding curves to 0 specific binding.

Some results are limits rather than exact numbers.

T1 sequence (P28223 whole entry): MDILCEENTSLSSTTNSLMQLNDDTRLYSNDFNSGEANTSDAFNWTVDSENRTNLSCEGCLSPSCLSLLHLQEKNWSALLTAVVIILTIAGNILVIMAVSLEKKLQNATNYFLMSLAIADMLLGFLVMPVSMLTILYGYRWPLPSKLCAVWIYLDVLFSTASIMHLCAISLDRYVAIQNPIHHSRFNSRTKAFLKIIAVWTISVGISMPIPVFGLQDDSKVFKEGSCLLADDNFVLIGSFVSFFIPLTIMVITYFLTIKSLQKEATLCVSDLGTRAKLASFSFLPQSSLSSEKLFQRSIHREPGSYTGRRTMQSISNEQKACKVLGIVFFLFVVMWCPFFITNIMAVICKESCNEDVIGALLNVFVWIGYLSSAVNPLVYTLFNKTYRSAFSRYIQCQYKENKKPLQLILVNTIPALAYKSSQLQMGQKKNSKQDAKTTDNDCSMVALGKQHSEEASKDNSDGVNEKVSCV
Chain of 5-HT2B receptor (P41595 whole entry): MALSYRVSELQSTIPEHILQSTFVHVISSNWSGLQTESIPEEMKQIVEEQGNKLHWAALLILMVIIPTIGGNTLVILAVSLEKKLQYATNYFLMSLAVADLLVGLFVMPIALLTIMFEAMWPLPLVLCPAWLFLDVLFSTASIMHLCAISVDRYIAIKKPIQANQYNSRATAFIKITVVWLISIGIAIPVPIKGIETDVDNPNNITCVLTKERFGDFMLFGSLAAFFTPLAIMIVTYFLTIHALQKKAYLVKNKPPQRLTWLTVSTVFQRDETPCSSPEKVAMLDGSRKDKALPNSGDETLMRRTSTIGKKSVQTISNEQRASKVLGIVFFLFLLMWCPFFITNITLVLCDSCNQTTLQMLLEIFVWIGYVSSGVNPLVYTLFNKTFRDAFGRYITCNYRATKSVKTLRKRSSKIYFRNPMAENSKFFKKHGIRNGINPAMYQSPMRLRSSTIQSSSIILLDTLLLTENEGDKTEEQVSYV
T2 sequence (P28223 whole entry): as the sequence (P28223 whole entry) above

With `CN(CCc1c[nH]c2cccc(O)c12)CC(F)(F)F` [III-13, 3-(2-(methyl (2,2,2-trifluoroethyl)amino)ethyl)-1H-indol-4-ol], the half-life at 1 µM in data set [1] worked out at 4.5 min.

As for `COc1ccc2[nH]cc(CCN(C)CC(F)(F)F)c2c1` [IV-40, 2,2,2-trifluoro-N-(2-(5-methoxy-1H-indol-3-yl)ethyl)-N-methylethan-1-amine], the half-life at 1 µM in [1] is 4.55 min.

Take `CN(C)CCc1c[nH]c2ccccc12` [DMT, N,N-dimethyltryptamine]: the “oral activity / oral bioavailability” value in [2] (po) is “not orally active”. For the same compound, the duration of action in data set [2] was 5 to 15 min.

Regarding `CN(CCc1c[nH]c2ccccc12)[S+]([O-])C(F)(F)F` (stereo not drawn) [II-15, N-(2-(1H-indol-3-yl)ethyl)-1,1,1-trifluoro-N-methylmethanesulfinamide], in [3], the activation at 0.5 µM is -24.1% and the activation at 50 µM was -36.9%. Moreover, the “5-HT2A functional activity (in words)” value in data set [3] (in vitro screening, II-15: both 500 nM and 50 μM) is reported as “inverse agonist efficacy”. The Ki in data set [4] was above 3000 nM.

For the compound `Oc1cccc2[nH]cc(CCN(CCC(F)F)CCC(F)F)c12` [III-2, 3-(2-(bis(3,3-difluoropropyl)amino)ethyl)-1H-indol-4-ol], in data set [5], the EC50 was determined as 96 nM, the “5-HT2B functional activity (in words)” value is “partial agonist” and the Emax was determined as 65%. In [6] (IP1 formation), the concentration giving a half-maximal response (EC50) worked out at 383 nM and the “5-HT2A functional activity (in words)” value was “low potency, full agonist”. Besides, in data set [3], the activation at 0.5 µM was found to be 58.3% and the activation at 50 µM is above 50%.

For the compound `CN(C)CCc1c[nH]c2cccc(OP(=O)(O)O)c12` [Psilocybin, psilocybin], the MAO-mediated metabolism result in data set [2] is reported as “undergo MAO-mediated metabolism in vivo”.

Consider `CCN(CC)CCc1c[nH]c2ccccc12` [DET, N,N-diethyltryptamine, reference compound], for which, in data set [7], the “elicitation of HTR (in words)” value was “inactive at eliciting the HTR”; the qualitative behavioral changes result is “accelerated breathing, hyperlocomotion, hiccup responses, and chewing movements of mouth”. Moreover, in data set [8], the “oral activity in humans” value is reported as “active orally in humans”.

Take `CN(C)CCc1c[nH]c2ccc(OC(F)(F)F)cc12` [IV-3, N,N-dimethyl-2-(5-(trifluoromethoxy)-1H-indol-3-yl) ethan-1-amine]: the half-life at 1 µM in data set [1] was 13.1 min.

With `CN(CCc1c[nH]c2ccccc12)CC(F)(F)F` [II-19, N-(2-(1H-indol-3-yl)ethyl)-2,2,2-trifluoro-N-methylethan-1-amine], the half-life at 1 µM in data set [1] was 3.95 min. In addition, the “competition for [3H]LSD-labeled 5-HT2A receptors” value in data set [9] is given as “only partial competition”.

Turning to `CN(C)CCc1c[nH]c2cccc(O)c12` [psilocin], the MAO-mediated metabolism result in data set [2] is given as “undergo MAO-mediated metabolism in vivo”.

Consider `COc1ccc2[nH]cc(CCN(C)CCC(F)(F)F)c2c1` [IV-21, 3,3,3-trifluoro-N-(2-(5-methoxy-1H-indol-3-yl)ethyl)-N-methylpropan-1-amine], for which, in [5], the EC50 worked out at 394 nM, the “5-HT2B functional activity (in words)” value was “partial agonist” and the Emax was 62%. In data set [6] (IP1 formation), the EC50 was above 3000 nM and the “5-HT2A functional activity (in words)” value is recorded as “low potency, EC50>3 μM, agonist”. This compound also showed an EC50 in [6] (dose-response curve had not plateaued at 3 μM) above 3000 nM. Further, in data set [3], the activation at 0.5 µM was 29.5%.

In general, EC50 refers to the concentration at which the effect is half-maximal. Higher therefore signals weaker potency. The term Emax denotes the size of the effect at its maximum, as opposed to the concentration needed.

The values are drawn from patent US20260337162A1, “TRYPTAMINE COMPOUNDS, COMPOSITIONS, AND METHODS OF USE” (priority 2022, published 2026).
